Experiments:
NURR-1/RXRα = molecular target: T1, NURR-1/RXRα (Homo sapiens, UniProt P19793); experiment: Transactivation test, NURR-1-Gal4/RXRα, luciferase reporter in Cos-7 cells; format: cell-based; conditions: for Emax: COS-7, induction level relative to reference XCT0135908 at 2×10^−5 M (=100%), read-out: hNurr1_RXRaFL Emax (%); for EC50: Cos-7 cells, NURR-1-Gal4/RXRα, luciferase reporter, read-out: hNurr1_RXRaFL EC50
T1 construct: expressed in transfected cells; host or cells: Cos-7 cells

NURR-1/RXRγ = molecular target: T2, NURR-1/RXRγ (Homo sapiens, UniProt P48443); experiment: Transactivation test, NURR-1-Gal4/RXRγ, luciferase reporter in Cos-7 cells; format: cell-based; conditions: for Emax: COS-7, induction level relative to reference XCT0135908 at 2×10^−5 M (=100%), read-out: hNurr1_RXRgFL Emax (%); for EC50: Cos-7 cells, NURR-1-Gal4/RXRγ, luciferase reporter, read-out: hNurr1_RXRgFL EC50
T2 construct: expressed in transfected cells; host or cells: Cos-7 cells

[1] = tested on: dopaminergic neurons of primary culture of rat embryo mesencephalon treated with MPP+; experiment: Neuroprotection in primary culture of rat embryo mesencephalon treated with MPP+ (count of tyrosine hydroxylase expressing cells); format: cell-based; conditions: recombinant human BDNF 10 ng/mL = 100%, 2 days with MPP+
Description: Another in vitro test was carried out with the compounds according to the invention, for the purpose of verifying that the molecules indeed have the expected neuroprotective effect in vitro.
The compounds were tested in a model of primary culture of rat embryo mesencephalon treated with 1-methyl-4-phenylpyridinium (MPP+), which is the active metabolite of 1-methyl-4-phenyl-1,2,3,6-tetrahydropyridine (MPTP). MPP+ enters into dopananergic neurons via the dopamine transporter and causes the death of these dopaminergic neurons. The following protocol was used.
Gestating female rats (15 days of gestation) were euthanized and the rat embryos were removed. The mesencephalons were removed. The tissue was then dissociated mechanically and by using trypsin. The cells collected after centrifugation were distributed into 96-well plates and left to stand for 5 days. The culture conditions made it possible to obtain a cell layer composed of neurons (dopaminergic and others) and astrocytes. On the 6th day, the cells were optionally treated with MPP+ in the presence or absence of test compound. After 2 days of incubation, the cells were fixed and various cell labellings were carried out; staining of the nuclei with the Hoechst fluorescent label and immunolabelling of tyrosine hydroxylase. The cells expressing tyrosine hydroxylase were counted using an image analyzer coupled to an optical microscope.
Recombinant human BDNF trophic factor (10 ng/mL) was used as reference. The activities of the compounds are given as percentages of activity relative to the BDNF reference, the activity of which is arbitrarily defined as being equal to 100%.

T2 sequence (P48443 whole entry, the tested form may be a part): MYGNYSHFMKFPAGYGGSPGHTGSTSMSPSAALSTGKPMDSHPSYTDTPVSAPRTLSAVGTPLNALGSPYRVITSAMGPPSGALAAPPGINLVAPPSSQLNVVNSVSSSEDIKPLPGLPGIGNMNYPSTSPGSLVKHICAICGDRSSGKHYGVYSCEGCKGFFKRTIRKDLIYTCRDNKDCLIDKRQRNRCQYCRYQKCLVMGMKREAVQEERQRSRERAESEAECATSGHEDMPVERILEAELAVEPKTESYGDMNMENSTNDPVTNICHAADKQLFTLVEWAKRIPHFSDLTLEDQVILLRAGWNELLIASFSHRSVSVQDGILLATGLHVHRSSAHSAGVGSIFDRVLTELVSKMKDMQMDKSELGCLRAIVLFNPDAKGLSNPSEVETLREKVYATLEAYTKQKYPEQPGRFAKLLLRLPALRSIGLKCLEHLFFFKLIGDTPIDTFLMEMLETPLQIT
T2 sequence (P43354 whole entry partner, the tested form may be a part): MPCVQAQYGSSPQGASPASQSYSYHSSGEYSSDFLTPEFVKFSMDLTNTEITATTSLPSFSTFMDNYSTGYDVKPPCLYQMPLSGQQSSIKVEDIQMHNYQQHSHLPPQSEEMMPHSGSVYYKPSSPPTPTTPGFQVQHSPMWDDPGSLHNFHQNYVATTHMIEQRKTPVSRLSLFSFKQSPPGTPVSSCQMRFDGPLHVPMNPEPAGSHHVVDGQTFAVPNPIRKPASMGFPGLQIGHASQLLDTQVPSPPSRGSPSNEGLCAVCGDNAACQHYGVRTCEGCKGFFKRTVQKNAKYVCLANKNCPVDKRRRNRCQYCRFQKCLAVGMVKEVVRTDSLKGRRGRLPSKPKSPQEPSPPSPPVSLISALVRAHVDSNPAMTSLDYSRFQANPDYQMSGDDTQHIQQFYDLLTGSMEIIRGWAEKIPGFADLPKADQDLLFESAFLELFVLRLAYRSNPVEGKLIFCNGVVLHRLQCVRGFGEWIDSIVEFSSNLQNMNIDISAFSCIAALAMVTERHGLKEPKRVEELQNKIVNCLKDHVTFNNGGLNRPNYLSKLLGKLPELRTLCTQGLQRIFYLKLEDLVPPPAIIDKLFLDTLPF
T2 sequence (P04386 1-147 partner limits assumed): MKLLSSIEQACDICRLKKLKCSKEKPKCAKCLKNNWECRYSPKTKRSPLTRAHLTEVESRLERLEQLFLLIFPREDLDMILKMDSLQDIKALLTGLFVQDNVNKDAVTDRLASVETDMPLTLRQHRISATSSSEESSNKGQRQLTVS
T1 sequence (P19793 whole entry, the tested form may be a part): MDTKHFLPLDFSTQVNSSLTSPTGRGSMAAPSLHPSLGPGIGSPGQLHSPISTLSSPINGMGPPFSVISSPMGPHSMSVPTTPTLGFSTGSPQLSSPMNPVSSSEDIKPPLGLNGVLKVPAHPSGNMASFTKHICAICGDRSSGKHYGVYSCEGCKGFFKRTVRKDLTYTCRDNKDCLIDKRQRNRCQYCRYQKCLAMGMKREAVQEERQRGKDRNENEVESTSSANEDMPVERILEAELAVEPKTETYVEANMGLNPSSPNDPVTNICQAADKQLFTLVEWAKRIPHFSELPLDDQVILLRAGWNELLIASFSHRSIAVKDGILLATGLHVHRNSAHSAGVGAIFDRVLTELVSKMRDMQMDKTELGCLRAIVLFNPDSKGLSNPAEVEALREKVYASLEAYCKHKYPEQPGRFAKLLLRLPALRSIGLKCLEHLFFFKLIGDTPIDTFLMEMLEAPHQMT
T1 sequence (P43354 whole entry partner, the tested form may be a part): as the sequence (P43354 whole entry partner, the tested form may be a part) above
T1 sequence (P04386 1-147 partner limits assumed): as the sequence (P04386 1-147 partner limits assumed) above

SMILES | Emax (NURR-1/RXRα) [%] | EC50 (NURR-1/RXRα) [µM] | Emax (NURR-1/RXRγ) [%] | EC50 (NURR-1/RXRγ) [µM] | melting point [°C] | percentage of activity relative to the BDNF reference ([1]; compound 1 μM) [%] | percentage of activity relative to the BDNF reference ([1]; compound 10 μM) [%]
Cc1cc(-c2cccc(N3CC(C(=O)O)C3)c2)cc(C(F)(F)F)c1 [Example 12, 1-[3-[3-methyl-5-(trifluoromethyl)phenyl]phenyl]azetidine-carboxylic acid] | 122 | 0.046 | 129 | 0.048 | – | 64 | 74
Cc1cc(N2CC(C(=O)O)C2)cc(-n2cc(C)c3nc(C(F)(F)F)ccc32)c1 [Example 58, 1-[3-methyl-5-[3-methyl;-5-(trifluoromethyl)pyrrol[3,2,-b]pyridine-1-yl]phenyl]azetidine-3-carboxylic acid] | 118 | 0.007 | 102 | 0.013 | – | 80 | 79
CC1(C)CNc2c(cc(C(F)(F)F)cc2-c2cccc(N3CC(C(=O)O)C3)c2)O1 [Example 61, 1-[3-[2,2-dimethyl-7-(trifluoromethyl)-3,4 dihydro-1,4-benzoxazin-5-yl]phenyl]azetidine-3-carboxylic acid] | 91 | 0.008 | 107 | 0.015 | – | 85 | 106
Cc1cc(-c2cc(C(F)(F)F)cc3c2NCC(C)(C)O3)cc(N2CC(C(=O)O)C2)c1 [Example 64, 1-[3-[2,2,-dimethyl-7-(triflouormethyl)3,4-dihydro-1,4-benzoxazin-5-yl]-5-methylphenyl]azetidine-3-carboxylic acid] | 99 | 0.004 | 109 | 0.004 | – | 81 | 92
CC(Oc1ccc(C(F)(F)F)cc1-c1cccc(N2CC(C(=O)O)C2)c1)c1ccccc1 (stereo not drawn) [Example 98, 1-[3-[2-(1-phenylethoxy)-5-(trifluoromethyl)phenyl]phenyl]azetidine-3-carboxylic acid] | 51 | 0.005 | 42 | 0.007 | – | 86 | 132
O=C(O)C1CN(c2cccc(-c3cc(C(F)(F)F)ccc3OCC3CCCCC3)c2)C1 [Example 104, 1-[3-[2-(cyclohenxylemthoxy)-5-(trifluoromethyl)phenyl]phenyl]azetidine-3-carboxylic acid] | 40 | 0.05 | 42 | 0.043 | – | 109 | –
CCOc1ccc(C(F)(F)F)cc1-c1cccc(N2CC(C(=O)O)C2)c1 [Example 109, 1-[3-[2-ethoxy-5-(trifluoromethyl)phenyl]phenyl]azetidine-3-carboxylic acid] | 86 | 0.039 | 112 | 0.067 | – | 145 | 147
CCC1CN(c2cccc(N3CC(C(=O)O)C3)c2)c2ccc(C(F)(F)F)cc2O1 (stereo not drawn) [Example 114, 1-[3-[2-ethyl-7-(trifluoromethyl)-2,3-dihydro-1,4-benzoxazin-4-yl]phenyl]azetidine-3-carboxylic acid] | 139 | 0.009 | 150 | 0.011 | – | 101 | 89
CCCC1CN(c2cccc(N3CC(C(=O)O)C3)c2)c2ccc(C(F)(F)F)cc2O1 (stereo not drawn) [Example 117, 1-[3-[2-propyl-7-(tirfluormethyl)2,3-dihydro-1,4-benzoxazin-4-yl]phenyl]azetidine-3-carboxylic acid] | 103 | 0.009 | 125 | 0.004 | – | 75 | 84
CC(C)Cc1cn(-c2cccc(N3CC(C(=O)O)C3)c2)c2ccc(C(F)(F)F)cc12 [Example 125, 1-[3-[3-isobutyl-5-(trifluoromethyl)indol-1-yl]phenyl]azetidine-3-carboxylic acid] | 152 | 0.004 | 162 | 0.002 | – | 86 | 107

Continued, in another order:

Emax (NURR-1/RXRα) [%] | EC50 (NURR-1/RXRα) [µM] | Emax (NURR-1/RXRγ) [%] | EC50 (NURR-1/RXRγ) [µM] | melting point [°C] | SMILES | percentage of activity relative to the BDNF reference ([1]; compound 1 μM) [%] | percentage of activity relative to the BDNF reference ([1]; compound 10 μM) [%]
98 | 0.289 | 83 | 0.288 | 178 to 198 | CC1(C)Oc2cc(C(C)(C)C)ccc2N(c2cccc(N3CC(C(=O)[O-])C3)c2)C1=O.[Na+] [Example 250, sodium 1-[3-(7-tert-butyl-2,2-dimethyl-3-oxo-1,4-benzoxazin-4-yl)phenyl]azetidine-3-carboxylate] | – | –
93 | 0.514 | 88 | 0.766 | 104 to 108 | CC(C)c1ccc2c(c1)OC(C)(C)C(=O)N2c1cccc(N2CC(C(=O)O)C2)c1 [Example 251, 1-[3-(7-isopropyl-2,2-dimethyl-3-oxo-1,4-benzoxazin-4-yl)phenyl]azetidine-3-carboxylic acid] | – | –
105 | 0.719 | 96 | 2.09 | 195 to 199 | O=C(O)C1CN(c2cccc(N3C(=O)COc4cc(C(F)(F)F)ccc43)c2)C1 [Example 252, 1-[3-[3-oxo-7-(trifluoromethyl)-1,4-benzoxazin-4-yl]phenyl]azetidine-3-carboxylic acid] | – | –
104 | 0.018 | 103 | 0.044 | 83 | CCC1(CC)CN(c2cccc(N3CC(C(=O)O)C3)c2)c2ccc(C(F)(F)F)cc21 [Example 255, 1-[3-[3,3-diethyl-5-(trifluoromethyl)indolin-1-yl]phenyl]azetidine-3-carboxylic acid] | – | –
102 | 0.236 | 107 | 0.755 | 159 to 161 | CCC1(CC)C(=O)N(c2cccc(N3CC(C(=O)O)C3)c2)c2ccc(C(F)(F)F)cc21 [Example 258, 1-[3-[3,3-diethyl-2-oxo-5-(trifluoromethyl)indolin-1-yl]phenyl]azetidine-carboxylic acid] | – | –
95 | 0.101 | 98 | 0.349 | 96 to 100 | CC1(C)Cc2cc(C(F)(F)F)ccc2N(c2cccc(N3CC(C(=O)O)C3)c2)C1=O [Example 259, 1-[3-[3,3-dimethyl-2-oxo-6-(trifluoromethyl)-4H-quinolin-1-yl]phenyl]azetidine-3-carboxylic acid] | – | –
56 | 0.255 | 56 | 0.551 | 55 to 82 | CC(C)c1ccc2c(c1)c1c(n2-c2cccc(N3CC(C(=O)O)C3)c2)CCC(C)(C)C1 [Example 260, 1-[3-(6-isopropyl-3,3-dimethyl-2,4-1H-carbzaol-9-yl)phenyl]azetidine-3-carboxylic acid] | – | –
78 | 0.031 | 95 | 0.304 | 141 to 170 | O=C([O-])C1CN(c2cccc(N3c4ccc(Cl)cc4C4CCCC43)c2)C1.[Na+] (stereo not drawn) [Example 261, sodium 1-[3-(7-chloro-2,3,3a,8b-tetrahydro-1H-cyclopenta[b]indol-4-yl)phenyl]azetidine-3-carboxylate] | – | –
81 | 1.7 | 98 | 2.83 | 94 to 96 | Cc1nc2cc(C(F)(F)F)ccc2n1-c1cccc(N2CC(C(=O)O)C2)c1 [Example 262, 1-[3-[2-methyl-5-(trifluoromethyl)benzimidazol-1-yl]phenyl]azetidine-3carboxylic acid] | – | –
112 | 0.001 | 113 | ~0.001 | 201 to 214 | CCC1(C)C=C(c2cccc(N3CC(C(=O)[O-])C3)c2)c2ccc(C(F)(F)F)cc2O1.[Na+] (stereo not drawn) [Example 266, sodium 1-[3-[2-ethyl-2-methyl-7-(trifluoromethyl)chromen-4-yl]phenyl]azetidine-3-carboxylate] | – | –
95 | 0.082 | 77 | 0.148 | 62 to 69 | O=C([O-])C1CN(c2cccc(N3c4ccc(Cl)cc4C4CC43)c2)C1.[Na+] (stereo not drawn) [Example 280, sodium 1-[3-(5-chloro-1a,6b-dihydro-1H-cyclopropa[b]indol-2-yl)phenyl]azetidine-3-carboxylate] | – | –

Reference: patent US20170066717A1, “NEW PHENYLAZETIDINECARBOXYLATE OR -CARBOXAMIDE COMPOUNDS” (INVENTIVA, priority 2014, published 2017)
